How the values were obtained:
[1] = target: CYP3A4 (Homo sapiens, UniProt P08684); experiment: In vitro CYP inhibition; type: in vitro ADME; conditions: clinically relevant concentrations
[2] = Food effect study (high-fat meal), atogepant IR tablet: plasma PK; type: in vivo, human; conditions: for AUC(0-inf) / AUC(0-t) / Cmax / Tmax / Vd/F: both sexes, human, plasma, oral, 60 mg; for Vd/F: read-out: Vz/F
Experimental: A single-center, randomized, open-label, single-dose, 2-period cross-over study was conducted to evaluate the effect of a high-fat meal on the systemic exposure of atogepant following single-dose administration of an immediate release (IR) tablet in healthy adult participants. Secondary objectives were to evaluate the secondary PK parameters of atogepant following single-dose administration of an IR tablet formulation of atogepant in healthy participants under fasted and fed conditions; and to evaluate the safety and tolerability profiles of single-dose atogepant in healthy adult participants under fed and fasted conditions. […] Plasma samples were collected pre-dose and at predetermined time intervals up to 48 hours after dosing. Atogepant plasma concentrations were determined using a validated LC-MS/MS assay and the pharmacokinetic (PK) parameters were calculated using WinNonlin. A linear mixed-effects model with sequence, study intervention, and period as fixed effects, and participant nested within sequence as a random effect was used to compare the natural logarithm transformed values of atogepant PK parameters AUC0-t, AUC0-inf, and Cmax. Safety was monitored via ECGs, vital signs, clinical labs, and adverse events. […] Screening occurred within 21 days before dosing (Days −21 to −1). The study intervention period was scheduled for a total of 11 days (Days −1 to 10), and the follow-up visit occurred with serum chemistry on day 38 (±3), (30 [±3] days after the last dose on Day 8). PK blood samples for analysis of plasma atogepant concentrations were collected starting on Days 1 (period 1) and 8 (period 2); at 0 hour (predose) and 0.5, 1, 1.5, 2, 3, 4, 6, 8, 12, 16, 24, 36, and 48 hours postdose. • Linear mixed effects model with natural logarithm-transformed values of AUC0-t, AUC0-inf, and Cmax, as the dependent variable and terms for study intervention, sequence, and period as fixed independent variables and participant nested in sequence as a random effect.

[3] = Atogepant-itraconazole drug interaction study: atogepant plasma PK; type: in vivo, human; conditions: for Tmax / AUC(0-inf) / AUC(0-t) / Cmax / half-life / Vd/F: both sexes, human, plasma, oral; for Vd/F: read-out: Vz/F
Experimental: An open-label, single-sequence drug-drug interaction study was carried out to evaluate the effect of CYP3A4 inhibition by oral itraconazole (200 mg per day) on the pharmacokinetics of a single oral dose of atogepant (60 mg) in healthy subjects.
This study was a single-center, single-sequence, open-label, 2-period PK drug-interaction study in 40 healthy male and female subjects aged 18 through 45 years.
Subjects who satisfied the inclusion and exclusion criteria were assigned to a single fixed-treatment sequence in which they received Treatment A followed by Treatment B; there was a 7-day washout period between treatments. • Treatment A: Single oral 60 mg dose of atogepant (tablet) under fasted conditions on Day 1 • Treatment B • Days 8-14: Itraconazole 200 mg (tablet) orally once daily under fed conditions. • Day 15: Itraconazole 200 mg coadministered with atogepant 60 mg (tablet) under fasted conditions. • Days 16 to 17: Itraconazole 200 mg (tablet) once daily under fed conditions.
Atogepant was administered in the fasted state in this study. Administration of itraconazole with food enhances its bioavailability. Accordingly, to maximize the CYP3A4 inhibition effect, itraconazole was administered with food on all the itraconazole treatment days except day 15. On day 15, both itraconazole and atogepant were administered under fasted state. Fasted state administration of itraconazole on Day 15 was unlikely to affect the CYP3A4 inhibition effect due to the attainment of steady state (of CYP3A4 activity) and long T1/2 of itraconazole (34 to 42 hours) following repeat dose administration.

[4] = target: CYP2D6 (Homo sapiens, UniProt P10635); experiment: In vitro CYP inhibition; type: in vitro ADME; conditions: clinically relevant concentrations
[5] = target: OATP1B3 (Homo sapiens, UniProt Q9NPD5); experiment: Transporter substrate; type: in vitro ADME
[6] = target: MATE 1 (Homo sapiens, UniProt Q96FL8); experiment: Transporter inhibition; type: in vitro ADME
[7] = target: BSEP (Homo sapiens, UniProt O95342); experiment: Transporter inhibition; type: in vitro ADME; conditions: clinically relevant concentrations
[8] = Study Intervention A: 1 × 60 mg IR tablet, fed
[9] = Study Intervention B: 1 × 60 mg IR tablet, fasted
[10] = Treatment A: atogepant 60 mg single dose alone, fasted
[11] = Treatment B: atogepant 60 mg + steady state itraconazole 200 mg
[12] = atogepant + itraconazole vs atogepant alone
[13] = co-administration with itraconazole (strong CYP3A4 inhibitor), healthy subjects

Chain of OATP1B3 (Q9NPD5 whole entry): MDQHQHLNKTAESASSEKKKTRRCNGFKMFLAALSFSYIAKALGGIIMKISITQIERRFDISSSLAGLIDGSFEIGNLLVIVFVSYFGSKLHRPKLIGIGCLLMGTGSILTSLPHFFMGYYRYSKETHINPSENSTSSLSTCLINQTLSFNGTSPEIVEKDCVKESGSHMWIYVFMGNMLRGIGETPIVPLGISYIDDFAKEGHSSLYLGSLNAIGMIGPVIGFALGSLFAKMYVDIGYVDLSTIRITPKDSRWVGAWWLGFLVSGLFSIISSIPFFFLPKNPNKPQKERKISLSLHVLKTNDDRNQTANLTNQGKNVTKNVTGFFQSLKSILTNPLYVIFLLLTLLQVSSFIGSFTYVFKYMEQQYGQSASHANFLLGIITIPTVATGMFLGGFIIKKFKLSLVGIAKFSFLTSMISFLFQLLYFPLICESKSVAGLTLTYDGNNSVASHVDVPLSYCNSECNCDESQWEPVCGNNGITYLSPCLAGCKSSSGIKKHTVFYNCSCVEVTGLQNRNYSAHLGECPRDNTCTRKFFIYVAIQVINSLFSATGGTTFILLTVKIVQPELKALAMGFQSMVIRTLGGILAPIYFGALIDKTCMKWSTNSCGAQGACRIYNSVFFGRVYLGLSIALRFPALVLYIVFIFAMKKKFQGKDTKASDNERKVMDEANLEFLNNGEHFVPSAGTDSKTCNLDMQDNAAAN
Chain of MATE 1 (Q96FL8 whole entry): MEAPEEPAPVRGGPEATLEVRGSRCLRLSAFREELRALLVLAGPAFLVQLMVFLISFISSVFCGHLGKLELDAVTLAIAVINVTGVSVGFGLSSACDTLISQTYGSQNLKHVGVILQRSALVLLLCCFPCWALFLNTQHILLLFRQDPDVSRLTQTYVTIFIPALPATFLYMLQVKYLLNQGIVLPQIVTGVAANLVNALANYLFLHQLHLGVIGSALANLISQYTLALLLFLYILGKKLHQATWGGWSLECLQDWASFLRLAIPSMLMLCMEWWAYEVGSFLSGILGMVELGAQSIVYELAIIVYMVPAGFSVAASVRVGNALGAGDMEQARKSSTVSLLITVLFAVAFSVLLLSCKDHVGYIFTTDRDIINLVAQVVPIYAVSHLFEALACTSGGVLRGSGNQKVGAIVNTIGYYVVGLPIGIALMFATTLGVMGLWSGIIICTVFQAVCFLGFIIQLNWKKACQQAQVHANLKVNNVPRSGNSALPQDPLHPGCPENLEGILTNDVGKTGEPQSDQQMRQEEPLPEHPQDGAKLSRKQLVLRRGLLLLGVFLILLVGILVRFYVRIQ
Chain of CYP2D6 (P10635 whole entry): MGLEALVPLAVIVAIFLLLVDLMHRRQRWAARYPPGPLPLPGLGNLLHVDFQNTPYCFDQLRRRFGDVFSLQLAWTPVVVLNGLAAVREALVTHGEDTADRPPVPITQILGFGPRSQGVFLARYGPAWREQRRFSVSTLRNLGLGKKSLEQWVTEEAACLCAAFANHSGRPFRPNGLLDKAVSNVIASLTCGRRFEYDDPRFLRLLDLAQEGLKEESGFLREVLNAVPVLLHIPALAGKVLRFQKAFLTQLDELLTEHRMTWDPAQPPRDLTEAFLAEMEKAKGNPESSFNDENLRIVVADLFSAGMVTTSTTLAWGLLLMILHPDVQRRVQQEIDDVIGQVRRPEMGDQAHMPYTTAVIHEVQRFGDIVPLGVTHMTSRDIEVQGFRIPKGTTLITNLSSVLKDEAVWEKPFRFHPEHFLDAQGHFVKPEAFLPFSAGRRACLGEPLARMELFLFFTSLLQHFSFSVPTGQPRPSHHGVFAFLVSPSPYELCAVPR
Chain of BSEP (O95342 whole entry): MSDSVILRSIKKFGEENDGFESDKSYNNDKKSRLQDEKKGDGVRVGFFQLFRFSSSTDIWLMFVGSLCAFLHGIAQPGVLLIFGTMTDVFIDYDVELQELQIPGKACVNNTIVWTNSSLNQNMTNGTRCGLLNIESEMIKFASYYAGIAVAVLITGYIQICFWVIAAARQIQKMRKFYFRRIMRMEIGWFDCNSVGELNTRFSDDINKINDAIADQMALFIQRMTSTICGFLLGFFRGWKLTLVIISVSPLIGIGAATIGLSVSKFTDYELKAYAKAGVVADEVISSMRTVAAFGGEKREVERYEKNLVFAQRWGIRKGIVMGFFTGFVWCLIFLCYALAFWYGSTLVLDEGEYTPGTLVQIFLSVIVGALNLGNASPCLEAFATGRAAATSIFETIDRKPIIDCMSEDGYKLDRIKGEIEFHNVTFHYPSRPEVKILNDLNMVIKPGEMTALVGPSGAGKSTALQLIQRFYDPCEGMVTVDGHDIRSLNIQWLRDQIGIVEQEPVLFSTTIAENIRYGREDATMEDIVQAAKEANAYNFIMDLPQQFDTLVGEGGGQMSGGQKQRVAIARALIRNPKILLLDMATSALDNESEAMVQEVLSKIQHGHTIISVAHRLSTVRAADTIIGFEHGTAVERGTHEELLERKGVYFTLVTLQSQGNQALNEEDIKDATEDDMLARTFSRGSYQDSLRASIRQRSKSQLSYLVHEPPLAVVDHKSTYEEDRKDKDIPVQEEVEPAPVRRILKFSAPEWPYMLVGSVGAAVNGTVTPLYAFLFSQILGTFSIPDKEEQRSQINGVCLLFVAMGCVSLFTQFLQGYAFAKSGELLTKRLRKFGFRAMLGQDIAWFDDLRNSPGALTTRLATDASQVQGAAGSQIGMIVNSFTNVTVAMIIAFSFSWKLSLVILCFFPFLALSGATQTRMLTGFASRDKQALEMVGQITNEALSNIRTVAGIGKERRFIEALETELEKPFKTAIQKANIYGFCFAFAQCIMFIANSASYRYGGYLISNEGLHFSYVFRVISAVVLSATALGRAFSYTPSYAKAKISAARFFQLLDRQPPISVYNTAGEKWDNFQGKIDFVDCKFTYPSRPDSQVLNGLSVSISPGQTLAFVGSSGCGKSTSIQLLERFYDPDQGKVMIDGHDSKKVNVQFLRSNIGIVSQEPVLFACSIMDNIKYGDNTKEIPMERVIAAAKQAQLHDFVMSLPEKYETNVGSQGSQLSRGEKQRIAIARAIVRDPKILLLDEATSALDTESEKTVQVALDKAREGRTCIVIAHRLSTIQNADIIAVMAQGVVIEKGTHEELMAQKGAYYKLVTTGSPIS
Chain of CYP3A4 (P08684 whole entry): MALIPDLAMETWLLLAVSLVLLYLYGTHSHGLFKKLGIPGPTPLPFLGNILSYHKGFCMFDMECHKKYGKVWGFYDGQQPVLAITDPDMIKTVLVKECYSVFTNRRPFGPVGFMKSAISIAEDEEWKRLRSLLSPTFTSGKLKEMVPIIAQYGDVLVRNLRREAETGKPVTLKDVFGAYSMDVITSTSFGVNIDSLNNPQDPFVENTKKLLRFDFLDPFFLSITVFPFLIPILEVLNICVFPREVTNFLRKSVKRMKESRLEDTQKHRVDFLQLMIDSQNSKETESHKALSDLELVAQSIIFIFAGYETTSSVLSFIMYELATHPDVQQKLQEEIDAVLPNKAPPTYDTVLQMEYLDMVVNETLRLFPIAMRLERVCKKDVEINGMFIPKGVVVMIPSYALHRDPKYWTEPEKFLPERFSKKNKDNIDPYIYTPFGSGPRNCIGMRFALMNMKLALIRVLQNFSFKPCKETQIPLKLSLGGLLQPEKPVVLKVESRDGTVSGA

Structure (SMILES): C[C@@H]1[C@H](c2c(F)ccc(F)c2F)C[C@H](NC(=O)c2cnc3c(c2)C[C@@]2(C3)C(=O)Nc3ncccc32)C(=O)N1CC(F)(F)F [atogepant, (3′S)-N-[(3S,5S,6R)-6-methyl-2-oxo-1-(2,2,2-trifluoroethyl)-5-(2,3,6-trifluorophenyl)piperidin-3-yl]-2′-oxo-1′,2′,5,7-tetrahydrospiro[cyclopenta[b]pyridine-6,3′-pyrrolo[2,3-b]pyridine]-3-carboxamide]
- inhibition of CYP3A4 [1]: not an inhibitor
- CL/F [2, 8]: 26.10 L/h
- Tlag (median) [2, 8]: 0 h
- tt/2 [2, 8]: 9.41 h
- λz [2, 8]: 0.0840 h⁻¹
- CL/F [2, 9]: 21.03 L/h
- Tlag (median) [2, 9]: 0 h
- tt/2 [2, 9]: 9.71 h
- λz [2, 9]: 0.0799 h⁻¹
- AUC(0-inf) ([2]; Fasted (Ref), read-out: AUC0-inf GLSM): 3160 ng·h/mL
- AUC(0-t) ([2]; Fasted (Ref), read-out: AUC0-t GLSM): 3130 ng·h/mL
- Cmax ([2]; Fasted (Ref), read-out: Cmax GLSM): 677 ng/mL
- Tmax ([2]; Fasted (ref), read-out: Tmax Median): 2.01 h
- AUC(0-inf) ([2]; Fed (Test), read-out: AUC0-inf GLSM): 2610 ng·h/mL
- AUC(0-t) ([2]; Fed (Test), read-out: AUC0-t GLSM): 2560 ng·h/mL
- Cmax ([2]; Fed (Test), read-out: Cmax GLSM): 527 ng/mL
- Tmax ([2]; Fed (Test), read-out: Tmax Median): 2.01 h
- AUC(0-inf) ([2]; Study Intervention A: 1 × 60 mg IR tablet, fed, read-out: AUC0-inf): 3200 ng·h/mL
- AUC(0-t) ([2]; Study Intervention A: 1 × 60 mg IR tablet, fed, read-out: AUC0-t): 3090 ng·h/mL
- Cmax ([2]; Study Intervention A: 1 × 60 mg IR tablet, fed, read-out: Cmax): 594 ng/mL
- Tmax ([2]; Study Intervention A: 1 × 60 mg IR tablet, fed, read-out: Tmax (median)): 2.01 h
- Vd/F [2, 8]: 368 L
- AUC(0-inf) ([2]; Study Intervention B: 1 × 60 mg IR tablet, fasted, read-out: AUC0-inf): 3490 ng·h/mL
- AUC(0-t) ([2]; Study Intervention B: 1 × 60 mg IR tablet, fasted, read-out: AUC0-t): 3460 ng·h/mL
- Cmax ([2]; Study Intervention B: 1 × 60 mg IR tablet, fasted, read-out: Cmax): 732 ng/mL
- Tmax ([2]; Study Intervention B: 1 × 60 mg IR tablet, fasted, read-out: Tmax (median)): 2.01 h
- Vd/F [2, 9]: 299 L
- Tmax ([2]; fed vs fasted, read-out: Tmax Median of Paired Differences (Test Minus Reference)): 0.5 h
- AUC0-inf Ratio of GLSMs Test/Ref ([2]; fed vs fasted): 82.53%
- AUC0-t Ratio of GLSMs Test/Ref ([2]; fed vs fasted): 81.70%
- Cmax Ratio of GLSMs Test/Ref ([2]; fed vs fasted): 77.90%
- effect on median time to maximum atogepant plasma concentration ([2]; high-fat meal): no effect
- reduction of AUC ([2]; high-fat meal (fed) vs fasted): approximately 18%
- CL/F [3, 10]: 19.2 L/h
- λz [3, 10]: 0.0825 h⁻¹
- CL/F [3, 11]: 3.46 L/h
- λz [3, 11]: 0.0496 h⁻¹
- AUC0-t GM Ratio Treatment B/Treatment A [3, 12]: 543.26%
- AUC0-∞ GM Ratio Treatment B/Treatment A [3, 12]: 550.78%
- Cmax GM Ratio Treatment B/Treatment A [3, 12]: 215.11%
- Tmax ([3]; 60 mg, Treatment A: atogepant 60 mg single dose alone, fasted, read-out: Tmax (median)): 2 h
- Tmax ([3]; atogepant + itraconazole vs atogepant alone, read-out: Tmax difference of medians): 1 h
- AUC(0-inf) [3, 10]: 3470 ng·h/mL
- AUC(0-t) [3, 10]: 3440 ng·h/mL
- Cmax [3, 10]: 740 ng/mL
- half-life [3, 10]: 11.2 h
- Vd/F [3, 10]: 292 L
- AUC(0-inf) [3, 11]: 18900 ng·h/mL
- AUC(0-t) [3, 11]: 18500 ng·h/mL
- Cmax [3, 11]: 1580 ng/mL
- half-life [3, 11]: 14.9 h
- Tmax ([3]; Treatment B: atogepant 60 mg + steady state itraconazole 200 mg, read-out: Tmax (median)): 3 h
- Vd/F [3, 11]: 73.4 L
- increase in atogepant AUC [3, 13]: 5.5 fold
- increase in atogepant Cmax [3, 13]: 2.15 fold
- inhibition of CYP2D6 [4]: not an inhibitor
- substrate of OATP1B3 [5]: substrate
- inhibition of MATE 1 [6]: weak inhibitor
- inhibition of BSEP [7]: not an inhibitor

— patent publication US12350259B2, “Methods of treating migraine” (Allergan Pharmaceuticals International Limited, priority 2021, dated 2025)
